# Experimental data as given in PMC4655872, “A quantitative assay to monitor HSV-1 ICP0 ubiquitin ligase activity in vitro” (Methods (San Diego, Calif.), 2015).
# System: T1, GST-ICP0.241
# T1 construct: gene RL2; purified from bacterial extracts; assayed with His-tagged human E1 (UBA1) and UBE2D1
# Assay: near-IR western blot of ICP0 auto-ubiquitination with methylated-ubiquitin, reconstituted E1/E2/E3
# Format: biochemical, Human alphaherpesvirus 1
# Conditions: non-specific divalent cation chelator, not a specific ligand; E1 and UBE2D1 present, 1 mM MgCl2, 5 mM ATP, pH 7.5, 37 °C, 5 min preincubation, 60 min reaction
compound,measurement,value
O=C(O)CN(CCN(CC(=O)O)CC(=O)O)CC(=O)O [EDTA],IC50,958 µM
